Assay results from PubChem BioAssay AID256 (DTP/NCI, 2004).
Where “and” joins values, the source holds several entries; their conditions need not be identical. Equal entries are not always repeated. Inconclusive results and toxic doses are left out.

Tested on: CD2F1 mice, L1210 leukemia ip, survival T/C
Assay: NCI In Vivo Anticancer Drug Screen. Data for tumor model L1210 Leukemia (intraperitoneal) in CD2F1 (CDF1) mice
Conditions: higher = longer survival
Procedure, shortened: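 Transplantable tumor in mice; compound-treated vs vehicle-treated groups. Read-out = treated/control ratio of the measured endpoint.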

[1] = endpoint: mean survival time, dose: 100.0 mg/kg/injection, schedule: Q04DX003 (ip), vehicle: saline with Tween-80
[2] = endpoint: mean survival time, dose: 200.0 mg/kg/injection, schedule: Q04DX003 (ip), vehicle: saline with Tween-80
[3] = endpoint: mean survival time, dose: 400.0 mg/kg/injection, schedule: Q04DX003 (ip), vehicle: saline with Tween-80
[4] = endpoint: mean survival time, dose: 50.0 mg/kg/injection, schedule: Q01DX009 (ip), vehicle: saline with Tween-80
[5] = endpoint: mean survival time, dose: 100.0 mg/kg/injection, schedule: Q01DX009 (ip), vehicle: saline with Tween-80
[6] = endpoint: mean survival time, dose: 200.0 mg/kg/injection, schedule: Q01DX009 (ip), vehicle: saline with Tween-80
[7] = endpoint: mean survival time, dose: 100.0 mg/kg/injection, schedule: Q01DX001 (ip), vehicle: saline
[8] = endpoint: mean survival time, dose: 200.0 mg/kg/injection, schedule: Q01DX001 (ip), vehicle: saline
[9] = endpoint: mean survival time, dose: 400.0 mg/kg/injection, schedule: Q01DX001 (ip), vehicle: saline
[10] = endpoint: mean survival time, dose: 100.0 mg/kg/injection, schedule: Q04DX002 (ip), vehicle: saline with Tween-80
[11] = endpoint: mean survival time, dose: 200.0 mg/kg/injection, schedule: Q04DX002 (ip), vehicle: saline with Tween-80
[12] = endpoint: mean survival time, dose: 100.0 mg/kg/injection, schedule: Q04DX003 (ip), vehicle: saline
[13] = endpoint: mean survival time, dose: 25.0 mg/kg/injection, schedule: Q04DX003 (ip), vehicle: saline with Tween-80
[14] = endpoint: mean survival time, dose: 400.0 mg/kg/injection, schedule: Q01DX009 (ip), vehicle: saline with Tween-80

`CC(=O)S[C@@H]1CC2=CC(=O)CC[C@]2(C)[C@H]2CC[C@@]3(C)[C@@H](CC[C@@]34CCC(=O)O4)[C@H]12` was tested, and the T/C (endpoint: mean survival time, dose: 100.0 mg/kg/injection, schedule: Q04DX003 (sc), vehicle: steriod suspending solution) was 95 % of control, the T/C (endpoint: mean survival time, dose: 200.0 mg/kg/injection, schedule: Q04DX003 (sc), vehicle: steriod suspending solution) was 97 % of control and the T/C (endpoint: mean survival time, dose: 400.0 mg/kg/injection, schedule: Q04DX003 (sc), vehicle: steriod suspending solution) was 98 % of control.

In the case of `O=c1[nH]cccc1[N+](=O)[O-]`, the T/C [1] is reported as 106 % of control, the T/C [2] is reported as 106 % of control and the T/C [3] is reported as 101 % of control.

`O=S(=O)(Nc1ccc(NS(=O)(=O)c2ccccc2)c2ccccc12)c1ccccc1` was tested, and the T/C [1] was 97 % of control, the T/C [2] was 91 % of control and the T/C [3] was 96 % of control.

In the case of `CN1C(=O)CN(CCN2CC(=O)N(c3ccccc3)C2=S)C1=S`, the T/C [4] is reported as 93 % of control, the T/C [5] is reported as 93 % of control and the T/C [6] is reported as 89 % of control.

In the case of `CN(N)c1nc(N)c(C#N)c(C#N)c1C#N`, the T/C (endpoint: mean survival time, dose: 50.0 mg/kg/injection, schedule: Q01DX001 (ip), vehicle: saline) is reported as 97 % of control, the T/C [7] is reported as 101 % of control and the T/C [8] is reported as 101 % of control. The T/C [9] was 97 % of control.

With `O=C(Cn1ccc(=O)[nH]c1=O)c1c[nH]c2ccccc12` the T/C [10] was 108 % of control, the T/C [11] was 108 % of control and the T/C (endpoint: mean survival time, dose: 400.0 mg/kg/injection, schedule: Q04DX002 (ip), vehicle: saline with Tween-80) was 104 % of control.

`S=C([SH2+])[SH2+].S=C([SH2+])[SH2+].[Pt+2].c1ccc(C[P+](c2ccccc2)(c2ccccc2)c2ccccc2)cc1` was tested, and the T/C (endpoint: mean survival time, dose: 12.0 mg/kg/injection, schedule: Q04DX003 (ip), vehicle: saline) was 87 % of control, the T/C (endpoint: mean survival time, dose: 25.0 mg/kg/injection, schedule: Q04DX003 (ip), vehicle: saline) was 100 % of control and the T/C (endpoint: mean survival time, dose: 50.0 mg/kg/injection, schedule: Q04DX003 (ip), vehicle: saline) was 94 % of control.

With `CN(C)CCC(=O)/C=C\c1ccccc1` the T/C [12] was 89 % of control.

With `CC1NC=NC1C(c1ccccc1)c1ccccc1` (centres undefined) the T/C [13] was 102 % of control, the T/C (endpoint: mean survival time, dose: 50.0 mg/kg/injection, schedule: Q04DX003 (ip), vehicle: saline with Tween-80) was 109 % of control and the T/C [1] was 101 % of control.

In the case of `CCC(C)OP(=S)(S)OC(C)CC.[Zn+2]` (centres undefined), the T/C (endpoint: mean survival time, dose: 0.75 mg/kg/injection, schedule: Q01DX009 (ip), vehicle: saline with Tween-80) is reported as 88 % of control and 90 % of control, the T/C (endpoint: mean survival time, dose: 1.5 mg/kg/injection, schedule: Q01DX009 (ip), vehicle: saline with Tween-80) is reported as 103 % of control and the T/C (endpoint: mean survival time, dose: 3.0 mg/kg/injection, schedule: Q01DX009 (ip), vehicle: saline with Tween-80) is reported as 88 % of control and 92 % of control. For the same compound, the T/C (endpoint: mean survival time, dose: 3.13 mg/kg/injection, schedule: Q01DX009 (ip), vehicle: saline with Tween-80) was 86 % of control and 88 % of control, the T/C (endpoint: mean survival time, dose: 6.25 mg/kg/injection, schedule: Q04DX003 (ip), vehicle: saline with Tween-80) was 93 % of control and the T/C (endpoint: mean survival time, dose: 12.5 mg/kg/injection, schedule: Q01DX001 (ip), vehicle: saline with Tween-80) was 101 % of control. The T/C (endpoint: mean survival time, dose: 12.5 mg/kg/injection, schedule: Q04DX003 (ip), vehicle: saline with Tween-80) was 95 % of control, the T/C (endpoint: mean survival time, dose: 25.0 mg/kg/injection, schedule: Q01DX001 (ip), vehicle: saline with Tween-80) was 100 % of control and the T/C (endpoint: mean survival time, dose: 25.0 mg/kg/injection, schedule: Q04DX002 (ip), vehicle: saline with Tween-80) was 94 % of control and 100 % of control. The T/C [13] was 97 % of control and the T/C (endpoint: mean survival time, dose: 50.0 mg/kg/injection, schedule: Q04DX002 (ip), vehicle: saline with Tween-80) was 120 % of control and 94 % of control.

`CC(CCC(=O)O)(c1cc(Br)c(O)c(Br)c1)c1cc(Br)c(O)c(Br)c1` was tested, and the T/C (endpoint: mean survival time, dose: 100.0 mg/kg/injection, schedule: Q01DX009 (ip), vehicle: other) was 96 % of control, the T/C (endpoint: mean survival time, dose: 200.0 mg/kg/injection, schedule: Q01DX009 (ip), vehicle: other) was 102 % of control and the T/C (endpoint: mean survival time, dose: 400.0 mg/kg/injection, schedule: Q01DX009 (ip), vehicle: other) was 101 % of control.

In the case of `CC12CCC(=O)C=C1CCC1C2CCC2(C)C1CCC2(O)C(=O)Cn1c(=O)cc[nH]c1=O` (centres undefined), the T/C (endpoint: mean survival time, dose: 12.5 mg/kg/injection, schedule: Q04DX003 (ip), vehicle: Klucel (hydroxypropylcellulose) (HPC)) is reported as 100 % of control, the T/C (endpoint: mean survival time, dose: 25.0 mg/kg/injection, schedule: Q04DX003 (ip), vehicle: Klucel (hydroxypropylcellulose) (HPC)) is reported as 93 % of control and the T/C (endpoint: mean survival time, dose: 50.0 mg/kg/injection, schedule: Q04DX003 (ip), vehicle: Klucel (hydroxypropylcellulose) (HPC)) is reported as 94 % of control. The T/C (endpoint: mean survival time, dose: 100.0 mg/kg/injection, schedule: Q04DX003 (ip), vehicle: Klucel (hydroxypropylcellulose) (HPC)) was 93 % of control and the T/C (endpoint: mean survival time, dose: 200.0 mg/kg/injection, schedule: Q04DX003 (ip), vehicle: Klucel (hydroxypropylcellulose) (HPC)) was 93 % of control.

`O=c1[nH]c(=O)c2nc(-c3cccnc3)cnc2[nH]1` was tested, and the T/C (endpoint: mean survival time, dose: 12.5 mg/kg/injection, schedule: Q01DX009 (ip), vehicle: saline) was 98 % of control and 103 % of control, the T/C (endpoint: mean survival time, dose: 25.0 mg/kg/injection, schedule: Q01DX009 (ip), vehicle: saline) was 101 % of control and 102 % of control and the T/C (endpoint: mean survival time, dose: 50.0 mg/kg/injection, schedule: Q01DX009 (ip), vehicle: saline) was 93 % of control and 104 % of control. The T/C (endpoint: mean survival time, dose: 100.0 mg/kg/injection, schedule: Q01DX009 (ip), vehicle: saline) was 98 % of control and 110 % of control, the T/C (endpoint: mean survival time, dose: 200.0 mg/kg/injection, schedule: Q01DX009 (ip), vehicle: saline) was 101 % of control and 110 % of control and the T/C (endpoint: mean survival time, dose: 400.0 mg/kg/injection, schedule: Q01DX009 (ip), vehicle: saline) was 114 % of control and 102 % of control.

`CC1CCC(c2cc(-c3ccccc3)n(-c3ccccc3)n2)CC1` (centres undefined) was tested, and the T/C (endpoint: mean survival time, dose: 100.0 mg/kg/injection, schedule: Q04DX003 (ip), vehicle: acetone) was 103 % of control, the T/C (endpoint: mean survival time, dose: 200.0 mg/kg/injection, schedule: Q04DX003 (ip), vehicle: acetone) was 101 % of control and the T/C (endpoint: mean survival time, dose: 400.0 mg/kg/injection, schedule: Q04DX003 (ip), vehicle: acetone) was 93 % of control.

With `O=C(NCCN=Cc1ccccc1)c1ccccc1` the T/C (endpoint: mean survival time, dose: 100.0 mg/kg/injection, schedule: Q01DX001 (ip), vehicle: saline with Tween-80) was 108 % of control, the T/C [5] was 98 % of control and the T/C (endpoint: mean survival time, dose: 200.0 mg/kg/injection, schedule: Q01DX001 (ip), vehicle: saline with Tween-80) was 101 % of control. For the same compound, the T/C [6] was 101 % of control, the T/C (endpoint: mean survival time, dose: 400.0 mg/kg/injection, schedule: Q01DX001 (ip), vehicle: saline with Tween-80) was 95 % of control and the T/C [14] was 97 % of control.

With `CC(C)=NNS(=O)(=O)c1ccccc1` the T/C (endpoint: mean survival time, dose: 12.5 mg/kg/injection, schedule: Q01DX005 (ip), vehicle: Klucel (hydroxypropylcellulose) (HPC)) was 88 % of control, the T/C (endpoint: mean survival time, dose: 25.0 mg/kg/injection, schedule: Q01DX005 (ip), vehicle: Klucel (hydroxypropylcellulose) (HPC)) was 96 % of control and the T/C (endpoint: mean survival time, dose: 50.0 mg/kg/injection, schedule: Q01DX005 (ip), vehicle: Klucel (hydroxypropylcellulose) (HPC)) was 96 % of control. For the same compound, the T/C (endpoint: mean survival time, dose: 100.0 mg/kg/injection, schedule: Q01DX005 (ip), vehicle: Klucel (hydroxypropylcellulose) (HPC)) was 93 % of control.

In the case of `CCCCCOc1ccccc1Cl`, the T/C [10] is reported as 101 % of control and the T/C [11] is reported as 98 % of control.

`Cc1ccc(N=Nc2ccc(N(C)C)cc2)c2cccnc12` was tested, and the T/C [5] was 104 % of control.

In the case of `O=C1C=C(N2CC2)C(=O)C(N2CC2)=C1N1CC1`, the T/C (endpoint: median survival time, dose: 12.5 micrograms/kg/injection, schedule: Q01DX009 (ip), vehicle: saline) is reported as 113 % of control, the T/C (endpoint: median survival time, dose: 25.0 micrograms/kg/injection, schedule: Q01DX009 (ip), vehicle: saline with Tween-80) is reported as 96 % of control and the T/C (endpoint: median survival time, dose: 25.0 micrograms/kg/injection, schedule: Q01DX009 (ip), vehicle: saline) is reported as 113 % of control. The T/C (endpoint: median survival time, dose: 50.0 micrograms/kg/injection, schedule: Q01DX009 (ip), vehicle: saline with Tween-80) was 118 % of control and 108 % of control, the T/C (endpoint: median survival time, dose: 100.0 micrograms/kg/injection, schedule: Q01DX009 (ip), vehicle: saline with Tween-80) was 156 % of control and the T/C (endpoint: median survival time, dose: 200.0 micrograms/kg/injection, schedule: Q01DX009 (ip), vehicle: saline with Tween-80) was 164 % of control and 190 % of control. For the same compound, the T/C (endpoint: median survival time, dose: 400.0 micrograms/kg/injection, schedule: Q01DX009 (ip), vehicle: saline with Tween-80) was 87 % of control and 91 % of control.

`Cc1ccc([N+](=O)[O-])cc1C#N` was tested, and the T/C [1] was 105 % of control, the T/C [2] was 105 % of control and the T/C [3] was 113 % of control.

In the case of `N#Cc1cn(C2OC(CO)C(O)C2O)c2[nH]cnc(=S)c12` (centres undefined), the T/C [7] is reported as 103 % of control, the T/C [8] is reported as 108 % of control and the T/C [9] is reported as 109 % of control.

`C1CC2CCC3CCCC4CCC(C1)C2C34` (centres undefined) was tested, and the T/C [4] was 98 % of control, the T/C [5] was 98 % of control and the T/C [1] was 98 % of control. For the same compound, the T/C [6] was 100 % of control and the T/C [2] was 102 % of control.

`O=C(C[n+]1cccc(C(=O)NCc2ccccc2)c1)Nc1ccc(Cl)cc1` was tested, and the T/C [12] was 94 % of control.

For `CCCCCCCC(=O)Nc1ccccc1CC`, the T/C [5] was 94 % of control, the T/C [6] was 100 % of control and the T/C [14] was 102 % of control.
